# Laboratory results published in PMC12455572, “Amphipathic Proline-Rich Cell Penetrating Peptides for Targeting Mitochondria” (ACS Chemical Biology, 2025).
# Entries after “also recorded” stand apart in the source; their conditions may differ. Where a SMILES comes first, the peptide text is derived from it. [ ]: non-standard residue; d: D form. The star is where a group is joined. 5FAM = O=C1OC2(c3ccc(O)cc3Oc3cc(O)ccc32)c2ccc(C(=O)*)cc21; Pro(cis-4-guanidino) = NC(N)=N[C@@H]1CN[C@H](C(=O)O)C1; Cha = N[C@@H](CC1CCCCC1)C(=O)O; Ahx = NCCCCCC(=O)O
# What was measured:
# [1] = RP-HPLC retention time as estimate of hydrophobicity (C4 column, 30 to 55% B); assay type: physicochemical; conditions: RP-HPLC used as estimate of hydrophobicity, A H2O/MeCN/TFA (1000/10/1), gradient 30 to 55% B, 20 min, CF-Ahx-labelled peptides
# Protocol: 2 (A) General structure of amphipathic peptides, CF-Ahx-[XZZ]3-NH2; CF = 5(6)-Carboxyfluorescein, Ahx = aminohexanoic acid. (B) CD spectra of the peptides, recorded at 50 μM in H2O, pH 5.7. For a comparison with a spectrum of a Gup oligomer, see Figure S2. (C) Retention time of the peptides measured by RP-HPLC on a C4 column with a mobile phase from 30 to 55% of MeCN in H2O/MeCN/TFA (1000/10/1). (D) Representative confocal microscopic images of live MCF-7 cells, incubated for 1 h at 37 °C with peptide solutions at a concentration of 10 μM in DMEM + 1% FBS (left, in green). Mitochondria were stained with Deep Red MitoTracker (middle, in red) and merged images (right, orange/yellow indicating colocalization) with Hoechst33342 stain (blue) for the nucleus. TEXT PRINTED IN THE PICTURE: (C) (ValZZ)3: tr(min): 1.8 | (C) (PheZZ)3: tr(min): 2.9 | (C) (TrpZZ)3: tr(min): 3.2 | (C) (ChaZZ)3: tr(min): 5.4 DOUBTS OF THE COPYIST ABOUT THIS PICTURE: Panel C, column head: the small lowered letter after t is read as r (tr), not certain
# The Gup residues should preorganize the peptides into a PPII helix with one hydrophobic and two cationic edges along the PPII helical peptide. Indeed, circular dichroism (CD) spectra of the peptides display the characteristic minimum and maximum at ∼206 nm and ∼224 nm, respectively, of a PPII helix (Figure B). The spectra imply that the non-proline residues in every third position are tolerated within the helical structure. We used reverse phase high performance liquid chromatography (RP-HPLC) for an estimate of the hydrophobicity of the peptides. On a C4 column using two mobile phases A (H2O/MeCN/TFA (1000/10/1)) and B (MeCN) with a gradient of 30% to 55% B, all peptides eluted over 20 min but with different retention times (Figure C). The Cha-containing peptide had the longest retention time, indicating the highest hydrophobicity within the series, followed by the Trp-, Phe-, and Val-peptides.
# [2] = system: MCF-7 cells; experiment: Confocal microscopy of live cells: cellular uptake and intracellular localization; assay type: cell-based; conditions: live MCF-7 cells; for Cellular uptake and intracellular localization (confocal microscopy): 1 h, 37 °C, DMEM + 1% FBS; for Intracellular localization after 24 h rest (confocal microscopy, Figure S7): 1 h incubation at 37 °C, washing, 24 h rest in DMEM + 10 % FBS, concentration not given
# Protocol: MitoTracker Deep Red was used as a counter stain for mitochondria and Hoechst 33342 for the nucleus. […] To explore whether PPII-helicity is key for mitochondrial localization, we prepared peptide CF-Ahx-(ChaRR)3-NH2 with Arg instead of Gup residues. This control peptide features a flexible conformation as judged by CD spectroscopy (Figure S1B). […] These findings show the importance of the secondary structure of the CPP for subcellular organelle localization.
# MCF-7 cells were seeded in a 8-μwell Ibidi plate at 25′000 cells/well in DMEM (100 μL, 10% FCS) and allowed to adhere overnight. The medium was removed, the cells were washed with PBS (200 μL, 1x) and incubated with the peptide solution at 20 μM, 10 μM, 5 μM or 2.5 μM in DMEM (200 μL, 1% FCS) for 1 h at 37 °C. The medium was removed, and the cells were washed with PBS (200 μL, 2x). MitoTracker Deep Red was distributed at 20 nM in DMEM (200 μL, 1% FBS) and the cells were incubated at 37 °C for 25 min. The medium was removed, and the cells were washed with PBS (200 μL, 2x). Hoechst333342 was distributed at 2 μM in DMEM (200 μL, 1% FBS) and the cells were incubated at 37 °C for 5 min. The cells were washed with PBS (200 μL, 2x), and FluoroBrite medium (200 μL) was added. The live cells were monitored on the confocal microscope at 37 °C, 5% CO2.
# For the cells subjected to a 24 h rest period, the FluoroBrite medium was exchanged for DMEM (200 μL, 10% FBS) after the initial imaging, and the cells were kept in this medium for 24 h. The culture medium was then exchanged for FluoroBrite DMEM, and the cells were imaged again.
# Fluorescence images of cells were collected using a Nikon Eclipse T1 (inverse) microscope equipped with a Yokogawa Confocal Scanner Unit CSU-W1-T2, containing a spinning disk (50 µm). The microscope is equipped with two EMCCD Andor iXon Ultra cameras. Emission in the blue channel (405 nm) was filtered with a 450/50 bandpass filter, emission in the green channel (488 nm) was filtered with a 525/50 bandpass, and the emission in the red channel (641 nm) was filtered with a 708/75 bandpass filter. Fluorescence images were obtained using an oil-immersion objective with a magnification of 100 × 1.4 CFI Plan Apo Oil.
# Each experiment was repeated at least three times. The images acquired were adjusted using ImageJ2 software. Correlation coefficients were determined on entire images using JaCOP plugin.1 […]
# MCF-7 cells were seeded in a 8-µwell Ibidi plate at 25’000 cells/well in DMEM (100 µL, 10% FCS) and allowed to adhere overnight. The medium was removed. The cells were washed with PBS (200 µL, 1x) and incubated with the peptide solution at 20 µM, 10 µM, 5 µM, or 2.5 µM in DMEM (200 µL, 1% FCS) for 1 h at 37 °C. The medium was removed, and the cells were washed with PBS (200 µL, 2x).
# For imaging of mitochondria, MitoTracker Deep Red was added as described in the manuscript. For imaging of endosomes/lysosomes, Ly s o Tr a c k e r Deep Red was added (200 µL, 20 nM in DMEM, 1% FBS) followed by incubation of the cells at 37 °C for 25 min. The medium was removed, and the cells were washed with PBS (200 µL, 2x). For imaging of the nucleus, Hoechst333342 was added at (200 µL, 2 µM in DMEM, 1% FBS) followed by incubation of the cells at 37 °C for 5 min. The cells were washed with PBS (200 µL, 2x), and FluoroBrite medium (200 µL) was added. The live cells were monitored on the confocal microscope […]
# MCF-7 cells were seeded in a 96-well plate at 7’500 cells/well in cell culture medium (200 µL, 10% FCS), and allowed to adhere overnight. The medium was removed, the cells were washed with PBS (100 µL, 1x) and incubated with the peptide solution at 20 µM, 10 µM, 5 µM, or 2.5 µM in DMEM (200 µL, 1% FCS) for 1 h at 37 °C. The medium was removed, and the cells were washed with PBS (100 µL, 1x). The MTT solution in DMEM (110 µL, 1.2 mM, 1% FBS) was added. The cells were incubated for 3 h at 37 °C. The […]
# [3] = concentration not stated at the place or given within the value
Molecule,Retention time tr [1],Cellular uptake and intracellular localization (confocal microscopy) ([2]; 5 μM peptide),"Cellular uptake and intracellular localization (confocal microscopy) [2, 3]","Intracellular localization after 24 h rest (confocal microscopy, Figure S7) [2]",Cellular uptake and intracellular localization (confocal microscopy) ([2]; 20 μM peptide),"Cellular uptake and intracellular localization (confocal microscopy) ([2]; 10 μM peptide, MitoTracker Deep Red and Hoechst 33342 counterstain)"
"N=C(N)N[C@H]1C[C@@H](C(=O)N2C[C@@H](NC(=N)N)C[C@H]2C(=O)N[C@@H](CC2CCCCC2)C(=O)N2C[C@@H](NC(=N)N)C[C@H]2C(=O)N2C[C@@H](NC(=N)N)C[C@H]2C(=O)N[C@@H](CC2CCCCC2)C(=O)N2C[C@@H](NC(=N)N)C[C@H]2C(=O)N2C[C@@H](NC(=N)N)C[C@H]2C(=O)N[C@@H](CC2CCCCC2)C(N)=O)N(C(=O)[C@H](CC2CCCCC2)NC(=O)CCCCCNC(=O)c2ccc3c(c2)C(=O)OC32c3ccc(O)cc3Oc3cc(O)ccc32)C1 [(ChaZZ)3-Cha, CF-Ahx-(ChaZZ)3-Cha-NH2] ({5FAM-Ahx}-[Cha][Pro(cis-4-guanidino)][Pro(cis-4-guanidino)][Cha][Pro(cis-4-guanidino)][Pro(cis-4-guanidino)][Cha][Pro(cis-4-guanidino)][Pro(cis-4-guanidino)][Cha]-NH2)",8.5 min,intracellular localization,"localized in mitochondria, endosomes, and the plasma membrane; also recorded: localized in the mitochondria and not the nucleus but was also trapped in endosomes",localized predominantly in the mitochondria,,
CF-Ahx-(ChaZZ)2-Cha-NH2,8.1 min,,localized in mitochondria and the cytoplasm,localized in the cytoplasm as punctuated fluorescence and remains slightly in the mitochondria,strong mitochondrial colocalization at 20 μM (Figure D) with limited endosomal entrapment,
CF-Ahx-(ChaZZ)3-NH2,,low uptake; also recorded: no fluorescence was visible; also recorded: minimal fluorescence,"localized in the cytoplasm, the nucleoli, and the mitochondria at concentrations of 10 μM and higher",localized predominantly in the mitochondria,,localizes in the mitochondria; also recorded: localized in the mitochondria as well as in the cytoplasm and the nucleoli
